# From patent US4559323A, “A41030 Antibiotics” (Eli Lilly and Company, priority 1984, dated 1985)
# Where two headings read alike, the source gives them in different places.
# What was measured:
# Bacteroides fragilis = experiment: Agar-dilution MIC (anaerobes); type: cell-based
# Source text: (§1) The agar-dilution procedure described by the International Collaborative study (ICS) group was used to determine the minimum inhibitory concentrations (MIC's).
# Bacteroides corrodens [1] = experiment: Agar-dilution MIC (anaerobes); type: cell-based; conditions: Table 12; 24-hour; B. corrodens 1874
# Source text: (§2) The A41030 antibiotics, factors A, B, and C, are active against a genus of anaerobic bacteria identified as Bacteroides sp., the 24-hour MIC values being determined by the agar-dilution method, and are set forth in Table 12, which follows.
# Bacteroides vulgatis [2] = experiment: Agar-dilution MIC (anaerobes); type: cell-based; conditions: Table 12; 24-hour; B. vulgatis 1563
# Source text: as §2
# B. thetaiotaomicron = type: cell-based
# Source text: as §1
# Clostridium difficile [3] = type: cell-based; conditions: Table 16
# Source text: The A41030 antibiotic factors A, B, C, D, E, F, and G, are also active against a number of strains of Clostridium difficile, as determined by the agar-dilution method.
# Clostridium perfringens = type: cell-based; conditions: Table 14; Clostridium perfringens 81
# Clostridium septicum = experiment: Agar-dilution MIC (anaerobes); type: cell-based; conditions: Table 14; Clostridium septicum 1128
# Peptococcus prevoti = experiment: Agar-dilution MIC (anaerobes); type: cell-based
# [4] = test system: Peptostreptococcus anaerobius; experiment: Agar-dilution MIC (anaerobes); type: cell-based
# [5] = test system: Peptostreptococcus intermedius; experiment: Agar-dilution MIC (anaerobes); type: cell-based
# [6] = test system: Bacteroides melaninogenicus; experiment: Agar-dilution MIC (anaerobes); type: cell-based; conditions: Table 14; Bacteroides melaninogenicus 2736
# Fusobacterium symbiosum = experiment: Agar-dilution MIC (anaerobes); type: cell-based; conditions: Table 14; Fusobacterium symbiosum 1470
# [7] = test system: Fusobacterium necrophorum; experiment: Agar-dilution MIC (anaerobes); type: cell-based; conditions: Table 14; Fusobacterium necrophorum 6054A
# Salmonella typhi = experiment: Agar-dilution MIC; type: cell-based; conditions: Table 17, 24 hours
# S. pyogenes = experiment: In vivo oral activity against S. pyogenes in mice
# Bacteroides corrodens [8] = experiment: Agar-dilution MIC (anaerobes); type: cell-based; conditions: Table 14; Bacteroides corrodens 1874
# Bacteroides vulgatis [9] = experiment: Agar-dilution MIC (anaerobes); type: cell-based; conditions: Table 14; Bacteroides vulgatis 1211
# Clostridium difficile [10] = type: cell-based; conditions: Table 14; Clostridium difficile 2994
smiles,measurement,setting,value
NC1C(=O)NC2Cc3ccc(c(Cl)c3)Oc3cc4cc(c3O)Oc3ccc(cc3Cl)C(O)C3NC(=O)C(NC(=O)C4NC(=O)C(NC2=O)c2cc(O)cc(c2)Oc2cc1ccc2O)c1cc(Cl)c(O)c(c1)-c1c(O)cc(O)cc1C(C(=O)O)NC3=O (centres unmarked) [A41030 factor A],MIC,"Bacteroides fragilis; Table 12, 24-hour, B. fragilis 110",64 µg/mL
same,MIC,"Bacteroides fragilis; Table 12, 24-hour, B. fragilis 111",32 µg/mL
same,MIC,"Bacteroides fragilis; Table 12, 24-hour, B. fragilis 112",64 µg/mL
same,MIC,"Bacteroides fragilis; Table 12, 24-hour, B. fragilis 113",32 µg/mL
same,MIC,"Bacteroides fragilis; Table 12, 24-hour, B. fragilis 1451",64 µg/mL
same,MIC,"Bacteroides fragilis; Table 12, 24-hour, B. fragilis 1470",64 µg/mL
same,MIC,"Bacteroides fragilis; Table 12, 24-hour, B. fragilis 1877",32 µg/mL
same,MIC,"Bacteroides fragilis; Table 12, 24-hour, B. fragilis 9032",64 µg/mL
same,MIC,"Bacteroides fragilis; Table 14, Bacteroides fragilis 111",128 µg/mL
same,MIC,"Bacteroides fragilis; Table 14, Bacteroides fragilis 1877",32 µg/mL
same,MIC,"Bacteroides fragilis; Table 14, Bacteroides fragilis 1936B",64 µg/mL
same,MIC,Bacteroides corrodens [1],32 µg/mL
same,MIC,Bacteroides vulgatis [2],32 µg/mL
same,MIC,"B. thetaiotaomicron; Table 12, 24-hour, B. thetaiotaomicron 1438",64 µg/mL
same,MIC,"B. thetaiotaomicron; Table 12, 24-hour, B. thetaiotaomicron 1900A",128 µg/mL
same,MIC,"B. thetaiotaomicron; Table 14, Bacteroides thetalotaomicron 1438",64 µg/mL
same,MIC,Clostridium difficile [3]; C. difficile 78,1.0 µg/mL
same,MIC,Clostridium difficile [3]; C. difficile 107B,1.0 µg/mL
same,MIC,Clostridium difficile [3]; C. difficile 111F,1.0 µg/mL
same,MIC,Clostridium difficile [3]; C. difficile 1153,1.0 µg/mL
same,MIC,Clostridium difficile [3]; C. difficile 2634,1.0 µg/mL
same,MIC,Clostridium difficile [3]; C. difficile 3424-5B,1.0 µg/mL
same,MIC,Clostridium difficile [3]; C. difficile 3816,1.0 µg/mL
same,MIC,Clostridium difficile [3]; C. difficile 3950,1.0 µg/mL
same,MIC,Clostridium difficile [3]; C. difficile 6890,1.0 µg/mL
same,MIC,Clostridium difficile [3]; C. difficile 8484,1.0 µg/mL
same,MIC,Clostridium difficile [3]; C. difficile A-194,1.0 µg/mL
same,MIC,Clostridium difficile [3]; C. difficile A-195,1.0 µg/mL
same,MIC,Clostridium difficile [3]; C. difficile A-196,1.0 µg/mL
same,MIC,Clostridium difficile [3]; C. difficile A-279,1.0 µg/mL
same,MIC,Clostridium difficile [3]; C. difficile A-280,1.0 µg/mL
same,MIC,Clostridium difficile [3]; C. difficile A-281,1.0 µg/mL
same,MIC,Clostridium difficile [3]; C. difficile WAL-2112,1.0 µg/mL
same,MIC,Clostridium difficile [3]; C. difficile WAL-3657,1.0 µg/mL
same,MIC,Clostridium difficile [3]; C. difficile WAL-4268,1.0 µg/mL
same,MIC,Clostridium perfringens,0.5 µg/mL
same,MIC,Clostridium septicum,2 µg/mL
same,MIC,"Peptococcus prevoti; Table 14, Peptococcus prevoti 1281",≤ 0.25 µg/mL
same,MIC,"Peptococcus prevoti; Table 15, Pc. prevoti 1281",0.5 µg/mL
same,MIC,"Peptococcus prevoti; Table 15, Pc. prevoti 1293",1.0 µg/mL
same,MIC,"Peptococcus prevoti; Table 15, Pc. prevoti 1407",1.0 µg/mL
same,MIC,"[4]; Table 14, Peptostreptococcus anaerobius 1428",≤ 0.25 µg/mL
same,MIC,"[4]; Table 15, Ps. anaerobius 8",0.5 µg/mL
same,MIC,"[4]; Table 15, Ps. anaerobius 52",0.5 µg/mL
same,MIC,"[4]; Table 15, Ps. anaerobius 59",0.5 µg/mL
same,MIC,"[4]; Table 15, Ps. anaerobius 1418",≤ 0.03 µg/mL
same,MIC,"[4]; Table 15, Ps. anaerobius 1428",0.5 µg/mL
same,MIC,"[4]; Table 15, Ps. anaerobius 1451",0.5 µg/mL
same,MIC,"[4]; Table 15, Ps. anaerobius 1477",0.5 µg/mL
same,MIC,"[5]; Table 14, Peptostreptococcus intermedius 1264",1.0 µg/mL
same,MIC,"[5]; Table 15, Ps. intermedius 1264",≤ 0.03 µg/mL
same,MIC,"[5]; Table 15, Ps. intermedius 1524",0.5 µg/mL
same,MIC,"[5]; Table 15, Ps. intermedius 1624",1.0 µg/mL
same,MIC,[6],4 µg/mL
same,MIC,Fusobacterium symbiosum,1.0 µg/mL
same,MIC,[7],8 µg/mL
same,MIC,Salmonella typhi; Salmonella typhi 1335,> 128 µg/mL
same,MIC,Salmonella typhi; Salmonella typhi X514,> 128 µg/mL
same,in vivo oral activity,S. pyogenes,> 300 mg./kg.X2
same,MIC,Bacteroides corrodens [8],64 µg/mL
same,MIC,Bacteroides vulgatis [9],32 µg/mL
same,MIC,Clostridium difficile [10],32 µg/mL
